Test results: patent US10952433B2, “Solutions for enhancing the effectiveness of insecticides and fungicides on living plants and related methods” (priority 2015, dated 2021)
Read-outs that look alike come from different tables or passages of the source.

Tests used:
[1] = tested on: lepidopteran larvae: cabbage loopers (Trichoplusia ni) and beet armyworms (Spodoptera exigua); format: in vivo; conditions: plants
Protocol: In a first group of tests, the results of which are shown in Table 7 (pages 22-24), romaine lettuce plants two to three inches in height were exposed to 10 milliliters of solution applied to each plant using a low volume trigger spray. With respect to containers 0-7, ten plants were employed per container, nine were treated and one was an internal control. In containers M-H, ten plants per container were used, five were treated and 5 were internal controls. Each container was infested with 30 lepidopteran larvae between the 5th and 6th instar development. Fifteen cabbage loopers (Trichoplusia ni) and 15 beet armyworms (Spodoptera exigua) were used to infest the romaine lettuce plants. Visual evaluations for the average percentage total surface area damage were taken 24 hours after infestation. Percentage damage was evaluated by 5% increments for total damage across all plant leaves.
As indicated in the first column of Table 7, in some tests, no insecticide was employed and there were two controls; a no water control and a no dye control. A wide variety of insecticides selected from the following group were tested: Chlorantranilopril, Acephate, Methoxyfenozide, Spinosad, Permethrin, and Indoxacarb. The product concentration is shown in PPM in column 2. Column 3 is divided into two subunits, the first being CO3 and the second, PO4. In all instances in columns 3, 4 and 5 and their sub-columns, the concentrations used were 200:1. The fourth column employed amine oxide, but no buffer. […] Two sub-columns each are represented for CO3 and PO4. The final column is a reading of the Percent Lepidopteran Damage to the romaine lettuce plants after 24 hours.
In addition to testing the buffered amine system of the present invention with the two amine oxides identified as CO3 and PO4 and their use with 12 carbon length and a mixture of 12 and 18 designated 1218 for comparative data purposes various differences were created in the testing. Some of the tests were performed with (a) no insecticide along with (b) no amine oxide for CO3 and PO4 and (c) with no buffer, but with amine oxide. Also, tests were run using no insecticide and no water control with no foliar application being made. Tests with no insecticide and no dye control employed foliar application of water only. The tests were conducted with all of the testing on the buffer alone, the amine oxide alone and the buffered amine oxide system of the present invention in the concentration of 200:1.

[2] = tested on: lepidopteran larvae: cabbage loopers (Trichoplusia ni) and beet armyworms (Spodoptera exigua); format: in vivo; conditions: leaf discs
Source text: A second series of tests involved romaine lettuce discs approximately ⅝ inch in diameter. (L. sativa). They were dipped in the treatment solution one second per disc. This test involved the 5/5 configuration, i.e., 5 treated and 5 untreated. The infestation involved […] lepidopteran larvae at the 3rd to 4th instar development per container: four cabbage loopers (Trichoplusia ni), and four beet armyworms (Spodoptera exigua) were employed. The test containers were placed in a dark humidity cabinet at 15° C. and 80% relative humidity. Visual evaluations of the average percent damage were taken at 24, 48 and 72 hours after the initiation of infestation. Damage was evaluated in 5% increments based on total disc area.
In the tests reported in Table 8 pages 29-32), romaine lettuce leaf discs ⅝″ in diameter (L. sativa) were dipped in the treatment solution for about one second per disc. Infestation was provided by eight lepidopteran larvae at the 3rd to 4th instar development per container. Four cabbage loopers (Trichoplusia ni) and four beet armyworms (Spodoptera exigua) were employed in infestation. The containers were placed in a dark humidity cabinet at 15° C. and 80% relative humidity. Visual observations of the average percent damage was taken at 24, 48 and 72 hours after infestation. Damage evaluation was by 5% increments over the total disc area.
In the tests results provided in Table 8, the identity and concentrations of the insecticide was identical to the tests results reported in Table 7. The concentration of 200:1 was employed for the no amino oxide, no buffer and buffered amine oxide system. This series of tests, however, reported how the percent damage changed with time at the respective 24, 48 and 72 hour intervals.

[3] = insecticide + CO3 buffer 200:1, no amine oxide, PPM: Chlorantranilopril 60, Acephate 70, Methoxyfenozide 100, Spinosad 30, Permethrin 10, Indoxacarb 50
[4] = insecticide + PO4 buffer 200:1, no amine oxide, PPM: Chlorantranilopril 60, Acephate 70, Methoxyfenozide 100, Spinosad 30, Permethrin 10, Indoxacarb 50
[5] = insecticide + amine oxide 12, no buffer, 200:1, PPM: Chlorantranilopril 60, Acephate 70, Methoxyfenozide 100, Spinosad 30, Permethrin 10, Indoxacarb 50
[6] = insecticide + amine oxide 1218, no buffer, 200:1, PPM: Chlorantranilopril 60, Acephate 70, Methoxyfenozide 100, Spinosad 30, Permethrin 10, Indoxacarb 50
[7] = insecticide + buffered amine oxide system CO3, 12, 200:1, PPM: Chlorantranilopril 60, Acephate 70, Methoxyfenozide 100, Spinosad 30, Permethrin 10, Indoxacarb 50
[8] = insecticide + buffered amine oxide system CO3, 1218, 200:1, PPM: Chlorantranilopril 60, Acephate 70, Methoxyfenozide 100, Spinosad 30, Permethrin 10, Indoxacarb 50
[9] = insecticide + buffered amine oxide system PO4, 12, 200:1, PPM: Chlorantranilopril 60, Acephate 70, Methoxyfenozide 100, Spinosad 30, Permethrin 10, Indoxacarb 50
[10] = insecticide + buffered amine oxide system PO4, 1218, 200:1, PPM: Chlorantranilopril 60, Acephate 70, Methoxyfenozide 100, Spinosad 30, Permethrin 10, Indoxacarb 50
[11] = insecticide alone, highest, PPM: Chlorantranilopril 120, Acephate 140, Methoxyfenozide 200, Spinosad 60, Permethrin 20, Indoxacarb 100
[12] = insecticide alone, increased, PPM: Chlorantranilopril 90, Acephate 105, Methoxyfenozide 150, Spinosad 45, Permethrin 15, Indoxacarb 75
[13] = insecticide alone, PPM: Chlorantranilopril 60, Acephate 70, Methoxyfenozide 100, Spinosad 30, Permethrin 10, Indoxacarb 50

Question: How did the “Percent Lepidopteran Damage to Romaine Lettuce 24 hr” value [1, 3] turn out when `CNC(=O)c1cc(Cl)cc(C)c1NC(=O)c1cc(Br)nn1-c1ncccc1Cl` [Chlorantranilopril] was run?
Answer: 13.5%

Question: What about the “Percent Lepidopteran Damage to Romaine Lettuce 24 hr” value [1, 4] of the same molecule?
Answer: 9.0%

Question: What about the “Percent Lepidopteran Damage to Romaine Lettuce 24 hr” value [1, 5] of the same molecule?
Answer: 9.0%

Question: What about the “Percent Lepidopteran Damage to Romaine Lettuce 24 hr” value [1, 6] of the same molecule?
Answer: 5.5%

Question: And the “Percent Lepidopteran Damage to Romaine Lettuce 24 hr” value [1, 7]?
Answer: 2.5%

Question: And the “Percent Lepidopteran Damage to Romaine Lettuce 24 hr” value [1, 8]?
Answer: 2.5%

Question: What about the “Percent Lepidopteran Damage to Romaine Lettuce 24 hr” value [1, 9] of the same molecule?
Answer: 4.0%

Question: And the “Percent Lepidopteran Damage to Romaine Lettuce 24 hr” value [1, 10]?
Answer: 0.0%

Question: What about the “Percent Lepidopteran Damage to Romaine Lettuce 24 hr” value [1, 11] of the same molecule?
Answer: 8.5%

Question: What about the “Percent Lepidopteran Damage to Romaine Lettuce 24 hr” value [1, 12] of the same molecule?
Answer: 8.2%

Question: And the “Percent Lepidopteran Damage to Romaine Lettuce 24 hr” value [1, 13]?
Answer: 10.5%

Question: And the “Percent Lepidopteran Damage to Romaine Lettuce 24 hr” value [2, 3]?
Answer: 13.0%

Question: What about the “Percent Lepidopteran Damage to Romaine Lettuce 24 hr” value [2, 4] of the same molecule?
Answer: 14.0%

Question: What about the “Percent Lepidopteran Damage to Romaine Lettuce 24 hr” value [2, 5] of the same molecule?
Answer: 4.5%

Question: And the “Percent Lepidopteran Damage to Romaine Lettuce 24 hr” value [2, 6]?
Answer: 10.5%

Question: What about the “Percent Lepidopteran Damage to Romaine Lettuce 24 hr” value [2, 7] of the same molecule?
Answer: 3.0%

Question: What about the “Percent Lepidopteran Damage to Romaine Lettuce 24 hr” value [2, 8] of the same molecule?
Answer: 1.0%

Question: And the “Percent Lepidopteran Damage to Romaine Lettuce 24 hr” value [2, 9]?
Answer: 4.5%

Question: And the “Percent Lepidopteran Damage to Romaine Lettuce 24 hr” value [2, 10]?
Answer: 6.5%

Question: What about the “Percent Lepidopteran Damage to Romaine Lettuce 24 hr” value [2, 11] of the same molecule?
Answer: 9.5%

Question: And the “Percent Lepidopteran Damage to Romaine Lettuce 24 hr” value [2, 12]?
Answer: 7.5%

Question: And the “Percent Lepidopteran Damage to Romaine Lettuce 24 hr” value [2, 13]?
Answer: 4.5%

Question: And the “Percent Lepidopteran Damage to Romaine Lettuce 48 hr” value [2, 3]?
Answer: 17.5%

Question: What about the “Percent Lepidopteran Damage to Romaine Lettuce 48 hr” value [2, 4] of the same molecule?
Answer: 22.5%

Question: What about the “Percent Lepidopteran Damage to Romaine Lettuce 48 hr” value [2, 5] of the same molecule?
Answer: 8.0%

Question: What about the “Percent Lepidopteran Damage to Romaine Lettuce 48 hr” value [2, 6] of the same molecule?
Answer: 17.5%

Question: And the “Percent Lepidopteran Damage to Romaine Lettuce 48 hr” value [2, 7]?
Answer: 5.0%

Question: What about the “Percent Lepidopteran Damage to Romaine Lettuce 48 hr” value [2, 8] of the same molecule?
Answer: 2.0%

Question: And the “Percent Lepidopteran Damage to Romaine Lettuce 48 hr” value [2, 9]?
Answer: 12.5%

Question: What about the “Percent Lepidopteran Damage to Romaine Lettuce 48 hr” value [2, 10] of the same molecule?
Answer: 12.5%

Question: And the “Percent Lepidopteran Damage to Romaine Lettuce 48 hr” value [2, 11]?
Answer: 17.5%

Question: What about the “Percent Lepidopteran Damage to Romaine Lettuce 48 hr” value [2, 12] of the same molecule?
Answer: 14.0%

Question: What about the “Percent Lepidopteran Damage to Romaine Lettuce 48 hr” value [2, 13] of the same molecule?
Answer: 9.0%

Question: And the “Percent Lepidopteran Damage to Romaine Lettuce 72 hr” value [2, 3]?
Answer: 19.5%

Question: And the “Percent Lepidopteran Damage to Romaine Lettuce 72 hr” value [2, 4]?
Answer: 24.5%

Question: And the “Percent Lepidopteran Damage to Romaine Lettuce 72 hr” value [2, 5]?
Answer: 8.5%

Question: What about the “Percent Lepidopteran Damage to Romaine Lettuce 72 hr” value [2, 6] of the same molecule?
Answer: 18.5%

Question: What about the “Percent Lepidopteran Damage to Romaine Lettuce 72 hr” value [2, 7] of the same molecule?
Answer: 5.0%

Question: What about the “Percent Lepidopteran Damage to Romaine Lettuce 72 hr” value [2, 8] of the same molecule?
Answer: 2.0%

Question: And the “Percent Lepidopteran Damage to Romaine Lettuce 72 hr” value [2, 9]?
Answer: 13.0%

Question: What about the “Percent Lepidopteran Damage to Romaine Lettuce 72 hr” value [2, 10] of the same molecule?
Answer: 12.5%

Question: What about the “Percent Lepidopteran Damage to Romaine Lettuce 72 hr” value [2, 11] of the same molecule?
Answer: 17.5%

Question: What about the “Percent Lepidopteran Damage to Romaine Lettuce 72 hr” value [2, 12] of the same molecule?
Answer: 15.0%

Question: What about the “Percent Lepidopteran Damage to Romaine Lettuce 72 hr” value [2, 13] of the same molecule?
Answer: 9.0%
